Test results reported in US8772303B2, “Pharmaceutical formulation” (Glaxo Group Limited, priority 2004, dated 2014).

Key:
[1] = Measurement of the substituted uracil formula (II) in simulated gastric fluid (hydrolysis of active); type: physicochemical; conditions: for Levels of Formula (II) in simulated gastric fluid: 60 mg active in 250 mL SGF, 37° C., 50 rpm
Excerpt: Compounds of Formula (I) hydrolyse, particularly under conditions where pH corresponds to that typically prevailing in the human stomach, to form a thiol and a uracil in a 1:1 stoichiometric ratio. The thiol has a smell characteristic of compounds of its class, the intensity of the smell increasing with the concentration of the thiol. Thus the concentration of the uracil is a surrogate marker for the intensity of the smell.
To simulate in vitro the effect of enteric-coating on the propensity of 1-(N-(2-(Diethylamino)ethyl)-N-(4-(4-trifluoromethylphenyl)benzyl)aminocarbonylmethyl)-2-(4-fluorobenzyl)thio-5,6-trimethylenepyrimidin-4-one as the free base (called “active” in this example) to give rise to abnormal smells in vivo, a two-armed study was performed. In both arms, 60 mg of active was immersed in 250 mL simulated gastric fluid held at 37° C. and stirred at 50 rpm in a USP2 dissolution apparatus. In one arm, the active was present as an enteric-coated tablet. In the other arm, active was present as the unformulated drug substance, which is chemically equivalent to a tablet lacking an enteric coat.
The uracil produced by the active is N-[2-(diethylamino)ethyl]-2-(2,4-dioxo-2,3,4,5,6,7-hexahydro-1H-cyclopenta[d]pyrimidin-1-yl)-N-{[4′-(trifluoromethyl)-4-biphenylyl]methyl}acetamide, as shown in Formula (II): […]
In both arms, the level of formula (II) in solution was monitored over time, by withdrawing a small sample of the fluid and comparing its LC-MS response to that of a matrix-matched external standard (i.e. synthetic formula (II)).

[2] = Measurement of the substituted uracil formula (II) in simulated intestinal fluid (hydrolysis of active); type: physicochemical; conditions: for Levels of formula (II) in simulated intestinal fluid: 80 mg active in 250 mL fasted-state SIF, 37° C., 50 rpm
Method: To simulate in vitro the propensity of active tablets to give rise to abnormal smells in the human intestine, active equivalent to 80 mg was immersed in 250 mL simulated intestinal fluid (corresponding to the fasted state in humans) held at 37° C. and stirred at 50 rpm in a USP2 dissolution apparatus. This is chemically equivalent to a tablet whose enteric coat has been destroyed and whose core has subsequently disintegrated.
The level of formula (II) in solution was monitored over time, by withdrawing a small sample of the fluid and comparing its LC-MS response to that of a matrix-matched external standard (i.e. synthetic formula (II)).

CCN(CC)CCN(Cc1ccc(-c2ccc(C(F)(F)F)cc2)cc1)C(=O)Cn1c(SCc2ccc(F)cc2)nc(=O)c2c1CCC2 [Unformulated drug, 1-(N-(2-(Diethylamino)ethyl)-N-(4-(4-trifluoromethylphenyl)benzyl)aminocarbonylmethyl)-2-(4-fluorobenzyl)thio-5,6-trimethylenepyrimidin-4-one]
Levels of Formula (II) in simulated gastric fluid ([1]; 0 min, QL 1.71 ng/mL): 6270 ng/mL | Levels of Formula (II) in simulated gastric fluid ([1]; 5 min, QL 1.71 ng/mL): 6570 ng/mL | Levels of Formula (II) in simulated gastric fluid ([1]; 10 min, QL 1.71 ng/mL): 7180 ng/mL | Levels of Formula (II) in simulated gastric fluid ([1]; 15 min, QL 1.71 ng/mL): 7970 ng/mL | Levels of Formula (II) in simulated gastric fluid ([1]; 30 min, QL 1.71 ng/mL): 9270 ng/mL | Levels of Formula (II) in simulated gastric fluid ([1]; 45 min, QL 1.71 ng/mL): 11450 ng/mL | Levels of Formula (II) in simulated gastric fluid ([1]; 60 min): 13110 ng/mL | Levels of Formula (II) in simulated gastric fluid ([1]; 120 min): 18940 ng/mL | Levels of Formula (II) in simulated gastric fluid ([1]; 240 min): 25250 ng/mL | Levels of Formula (II) in simulated gastric fluid ([1]; 480 min): 62910 ng/mL | Levels of Formula (II) in simulated gastric fluid ([1]; 1440 min): 135600 ng/mL | Reduction by the enteric coat of the level of formula (II) formed by active ([1]; simulated gastric fluid, enteric coated tablet versus unformulated drug): 4 orders of magnitude | Levels of formula (II) in simulated intestinal fluid ([2]; 480 min): 2.99 ng/mL | Levels of formula (II) in simulated intestinal fluid ([2]; 1440 min): 8.58 ng/mL | Propensity to form formula (II) in simulated intestinal fluid ([2]; in contrast to behaviour in simulated gastric fluid): low propensity
